Structures can show the parent of a compound that is named as a salt. Where two headings read alike, the source gives them in different places.
Tests used:
[1] = target: T1, human OX2 receptor (Homo sapiens, UniProt O43614); experiment: Measurement of orexin receptor antagonistic activity (calcium fluorescence, FLIPRtetra); assay type: cell-based; settings: CHO, read-out: Human Orexin2 receptor inhibition (at 10 μM)
T1 construct: expressed in transfected cells; host or cells: CHO cells
T1 sequence (O43614 1-444): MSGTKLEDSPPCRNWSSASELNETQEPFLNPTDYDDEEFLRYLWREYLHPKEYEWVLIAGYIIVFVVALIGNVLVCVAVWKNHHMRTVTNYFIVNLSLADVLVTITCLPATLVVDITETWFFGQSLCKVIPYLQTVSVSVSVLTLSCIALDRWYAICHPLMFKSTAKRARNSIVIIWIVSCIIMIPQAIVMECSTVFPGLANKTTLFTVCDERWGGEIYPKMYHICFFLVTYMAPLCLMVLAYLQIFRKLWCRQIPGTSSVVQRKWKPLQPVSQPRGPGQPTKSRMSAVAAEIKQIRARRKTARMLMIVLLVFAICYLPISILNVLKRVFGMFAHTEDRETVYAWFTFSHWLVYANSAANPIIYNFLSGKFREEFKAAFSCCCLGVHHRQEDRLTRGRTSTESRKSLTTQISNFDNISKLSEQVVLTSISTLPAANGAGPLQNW
How it was run: (§1)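 Calcium fluorescence measured by FLIPRtetra every second for 2 min after orexin-A challenge, 1 nM final for OX1 and 0.3 nM final for OX2. Receptor-expressing CHO cells received compound in HEPES-buffered HBSS with 0.1% BSA just before agonist.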

[2] = target: T2, human OX1 receptor (Homo sapiens, UniProt O43613); experiment: as above; assay type: cell-based; settings: CHO, read-out: Human Orexin1 receptor inhibition (at 10 μM)
T2 construct: expressed in transfected cells; host or cells: CHO cells
T2 sequence (O43613 1-425): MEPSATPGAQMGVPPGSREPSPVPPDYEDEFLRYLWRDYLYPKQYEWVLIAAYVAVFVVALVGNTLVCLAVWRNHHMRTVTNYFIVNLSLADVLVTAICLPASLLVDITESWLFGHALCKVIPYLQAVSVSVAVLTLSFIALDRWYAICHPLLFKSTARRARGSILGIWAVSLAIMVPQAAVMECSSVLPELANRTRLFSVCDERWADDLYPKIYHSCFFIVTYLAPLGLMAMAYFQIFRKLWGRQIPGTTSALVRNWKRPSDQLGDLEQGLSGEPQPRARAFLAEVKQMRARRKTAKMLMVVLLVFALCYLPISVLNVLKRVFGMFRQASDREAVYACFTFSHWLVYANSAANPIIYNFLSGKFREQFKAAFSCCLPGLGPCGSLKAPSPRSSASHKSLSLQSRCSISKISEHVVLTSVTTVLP
How it was run: as §1

[3] = 10 μM test compound, CHO cells expressing human OX2 receptor, OX-A 0.3 nM
[4] = 10 μM test compound, CHO cells expressing human OX1 receptor, OX-A 1 nM

## CCOC(=O)c1cc(N2CCN(C(=O)c3cc(Cl)ccc3-n3nccn3)C[C@H](C)O2)nc(C)n1 [Example 208, ethyl 6-((7S)-5-(5-chloro-2-(2H-1,2,3-triazol-2-yl)benzoyl)-7-methyl-1,2,5-oxadiazepan-2-yl)-2-methylpyrimidine-4-carboxylate]
[1]; [3]
  inhibition at 10 µM: 14%
[2]; [4]
  inhibition at 10 µM: 8%

## COc1cccc(F)c1C(=O)N1CCON(c2nc(C)cc(C)n2)CC1 [Example 48, (2-(4,6-dimethylpyrimidin-2-yl)-1,2,5-oxadiazepan-5-yl) (2-fluoro-6-methoxyphenyl) methanone]
[1]; [3]
  inhibition at 10 µM: 73%
[2]; [4]
  inhibition at 10 µM: 10%

## Cc1ccc(-n2nccn2)c(C(=O)N2CCON(c3ncc(C(F)(F)F)cn3)CC2)c1 [Example 9]
[1]; [3]
  inhibition at 10 µM: 74%
[2]; [4]
  inhibition at 10 µM: 91%

## Cc1ccc(-n2nccn2)c(C(=O)N2CCN(c3cc(C(F)(F)F)ccn3)OC[C@H]2C)c1 [Example 127, (5-methyl-2-(2H-1,2,3-triazol-2-yl)phenyl) ((6R)-6-methyl-2-(4-(trifluoromethyl)pyridin-2-yl)-1,2,5-oxadiazepan-5-yl)methanone]
[1]; [3]
  inhibition at 10 µM: 86%
[2]; [4]
  inhibition at 10 µM: 66%

## Cc1nc(N2C[C@H](C)N(C(=O)c3cc(F)ccc3-n3nccn3)[C@H](C)CO2)cc(C(F)(F)F)n1 [Example 181, ((4S,6R)-4,6-dimethyl-2-(2-methyl-6-(trifluoromethyl)pyrimidin-4-yl)-1,2,5-oxadiazepan-5-yl)(5-fluoro-2-(2H-1,2,3-triazol-2-yl)phenyl)methanone]
[1]; [3]
  inhibition at 10 µM: 83%
[2]; [4]
  inhibition at 10 µM: 70%

## Cc1nc(N2CCN(C(=O)c3cc(Cl)ccc3-c3ncccn3)CCO2)cc(C(F)(F)F)n1 [Example 225, (5-chloro-2-(pyrimidin-2-yl)phenyl)(2-(2-methyl-6-(trifluoromethyl)pyrimidin-4-yl)-1,2,5-oxadiazepan-5-yl)methanone]
[1]; [3]
  inhibition at 10 µM: 103%
[2]; [4]
  inhibition at 10 µM: 74%

## COCC1CN(C(=O)c2ccccc2-n2nccn2)CCN(c2cc(C)nc(C)n2)O1 (stereo not drawn) [Example 113, (2-(2,6-dimethylpyrimidin-4-yl)-7-(methoxymethyl)-1,2,5-oxadiazepan-5-yl)(2-(2H-1,2,3-triazol-2-yl)phenyl)methanone]
[1]; [3]
  inhibition at 10 µM: 102%
[2]; [4]
  inhibition at 10 µM: 16%

## Cc1nc(C(F)F)cc(N2C[C@H](C)N(C(=O)c3cc(Cl)ccc3-n3nccn3)[C@H](C)CO2)n1 [Example 182, (5-chloro-2-(2H-1,2,3-triazol-2-yl)phenyl)((4S,6R)-2-(6-(difluoromethyl)-2-methylpyrimidin-4-yl)-4,6-dimethyl-1,2,5-oxadiazepan-5-yl)methanone]
[1]; [3]
  inhibition at 10 µM: 98%
[2]; [4]
  inhibition at 10 µM: 100%

## Cc1cc(N2CCN(C(=O)c3ccccc3-c3nccs3)C[C@H](C)O2)nc(C)n1 [Example 84, ((7S)-2-(2,6-dimethylpyrimidin-4-yl)-7-methyl-1,2,5-oxadiazepan-5-yl)(2-(1,3-thiazol-2-yl)phenyl)methanone]
[1]; [3]
  inhibition at 10 µM: 98%
[2]; [4]
  inhibition at 10 µM: 100%

## Cc1ccc(-n2nccn2)c(C(=O)N2CCN(c3ccnc(C)c3)OC[C@H]2C)c1 [Example 144, ((6R)-6-methyl-2-(2-methylpyridin-4-yl)-1,2,5-oxadiazepan-5-yl) (5-methyl-2-(2H-1,2,3-triazol-2-yl)phenyl)methanone]
[1]
  inhibition at 10 µM: 12%
[2]
  inhibition at 10 µM: 14%

## C[C@H]1CN(C(=O)c2ccccc2-n2nccn2)CCN(c2cc(C3CC3)nc(C3CC3)n2)O1 [Example 96, ((7S)-2-(2,6-dicyclopropylpyrimidin-4-yl)-7-methyl-1,2,5-oxadiazepan-5-yl) (2-(2H-1,2,3-triazol-2-yl)phenyl)methanone]
[1]; [3]
  inhibition at 10 µM: 98%
[2]; [4]
  inhibition at 10 µM: 98%

## Cc1cc(N2CCN(C(=O)c3cc(C(F)(F)F)ccc3-n3nccn3)C[C@H](C)O2)nc(C)n1 [Example 199, ((7S)-2-(2,6-dimethylpyrimidin-4-yl)-7-methyl-1,2,5-oxadiazepan-5-yl)(2-(2H-1,2,3-triazol-2-yl)-5-(trifluoromethyl)phenyl)methanone]
[1]; [3]
  inhibition at 10 µM: 100%
[2]; [4]
  inhibition at 10 µM: 42%

## C[C@@H]1CON(c2ncnc3ccn(C)c23)CCN1C(=O)c1cc(F)ccc1-n1nccn1 [Example 165, (5-fluoro-2-(2H-1,2,3-triazol-2-yl)phenyl)((6R)-6-methyl-2-(5-methyl-5H-pyrrolo[3,2-d]pyrimidin-4-yl)-1,2,5-oxadiazepan-5-yl)methanone]
[1]; [3]
  inhibition at 10 µM: 24%
[2]; [4]
  inhibition at 10 µM: 24%

## Cc1cc(N2CCN(C(=O)c3cc(F)c(F)cc3-n3nccn3)C[C@H](C)O2)nc(C)n1 [Example 106, (4,5-difluoro-2-(2H-1,2,3-triazol-2-yl)phenyl)((7S)-2-(2,6-dimethylpyrimidin-4-yl)-7-methyl-1,2,5-oxadiazepan-5-yl)methanone]
[1]; [3]
  inhibition at 10 µM: 99%
[2]; [4]
  inhibition at 10 µM: 38%

## Cc1cc(N2CCN(C(=O)c3cc(F)ccc3-c3nccs3)C[C@H](C)O2)nc(C)n1 [Example 87, ((7S)-2-(2,6-dimethylpyrimidin-4-yl)-7-methyl-1,2,5-oxadiazepan-5-yl)(5-fluoro-2-(1,3-thiazol-2-yl)phenyl)methanone hydrochloride]
[1]; [3]
  inhibition at 10 µM: 102%
[2]; [4]
  inhibition at 10 µM: 81%

## Cc1cc(N2CCN(C(=O)c3ccc(Cl)cc3-n3ccnn3)C[C@H](C)O2)nc(C)n1 [Example 211, (4-chloro-2-(1H-1,2,3-triazol-1-yl)phenyl)((7S)-2-(2,6-dimethylpyrimidin-4-yl)-7-methyl-1,2,5-oxadiazepan-5-yl)methanone]
[1]; [3]
  inhibition at 10 µM: 80%
[2]; [4]
  inhibition at 10 µM: 21%

## Cc1cc(N2CCN(C(=O)c3ccccc3-c3ncc(F)s3)CCO2)nc(C)n1 [Example 17, (2-(2,6-dimethylpyrimidin-4-yl)-1,2,5-oxadiazepan-5-yl) (2-(5-fluoro-1,3-thiazol-2-yl)phenyl)methanone]
[1]; [3]
  inhibition at 10 µM: 102%
[2]; [4]
  inhibition at 10 µM: 41%

## Cc1cc(N2CCN(C(=O)c3cc(F)c(F)cc3-c3ncccn3)[C@H](C)CO2)nc(C)n1 [Example 231, (4,5-difluoro-2-(pyrimidin-2-yl)phenyl)((6R)-2-(2,6-dimethylpyrimidin-4-yl)-6-methyl-1,2,5-oxadiazepan-5-yl)methanone]
[1]; [3]
  inhibition at 10 µM: 103%
[2]; [4]
  inhibition at 10 µM: 38%

## Cc1cccc(N2CCN(C(=O)c3ccccc3-c3nccs3)C[C@H](C)O2)n1 [Example 89, ((7S)-7-methyl-2-(6-methylpyridin-2-yl)-1,2,5-oxadiazepan-5-yl) (2-(1,3-thiazol-2-yl)phenyl)methanone]
[1]; [3]
  inhibition at 10 µM: 97%
[2]; [4]
  inhibition at 10 µM: 101%

## COC(=O)c1cc(N2CCN(C(=O)c3cc(Cl)ccc3-n3nccn3)C[C@H](C)O2)nc(C)n1 [Example 207, methyl 6-((7S)-5-(5-chloro-2-(2H-1,2,3-triazol-2-yl)benzoyl)-7-methyl-1,2,5-oxadiazepan-2-yl)-2-methylpyrimidine-4-carboxylate]
[1]; [3]
  inhibition at 10 µM: 81%
[2]; [4]
  inhibition at 10 µM: 25%

## Cc1cc(N2CCN(C(=O)c3cc(F)c(F)cc3-c3ncc(F)cn3)CCO2)nc(C)n1 [Example 223, (4,5-difluoro-2-(5-fluoropyrimidin-2-yl)phenyl)(2-(2,6-dimethylpyrimidin-4-yl)-1,2,5-oxadiazepan-5-yl)methanone]
[1]; [3]
  inhibition at 10 µM: 101%
[2]; [4]
  inhibition at 10 µM: 17%

## Cc1cc(C)nc(N2CCN(C(=O)c3cccc4cccnc34)CCO2)n1 [Example 66, (2-(4,6-dimethylpyrimidin-2-yl)-1,2,5-oxadiazepan-5-yl) (quinolin-8-yl)methanone]
[1]; [3]
  inhibition at 10 µM: 90%
[2]; [4]
  inhibition at 10 µM: 13%

## Cc1cc(C)nc(N2CCN(C(=O)c3cccc(C#N)c3)CCO2)n1 [Example 49, 3-((2-(4,6-dimethylpyrimidin-2-yl)-1,2,5-oxadiazepan-5-yl)carbonyl) benzonitrile]
[1]; [3]
  inhibition at 10 µM: 14%
[2]; [4]
  inhibition at 10 µM: 9%

## Cc1ccc(-n2nccn2)c(C(=O)N2CCN(c3ccc(F)cn3)OC[C@H]2C)c1 [Example 119, ((6R)-2-(5-fluoropyridin-2-yl)-6-methyl-1,2,5-oxadiazepan-5-yl)(5-methyl-2-(2H-1,2,3-triazol-2-yl)phenyl)methanone]
[1]; [3]
  inhibition at 10 µM: 92%
[2]; [4]
  inhibition at 10 µM: 48%

From patent publication US10131653B2, “Heterocyclic compound” (TAKEDA PHARMACEUTICAL COMPANY LIMITED, priority 2015, dated 2018)
